Consider five molecules from publication PMC12423892 (ACS Omega, 2025).

One assay has as its system HCT-116. Description: In vitro antiproliferative MTT assay, HCT-116. The assay is classed as cell-based. The note with it: Homo sapiens, HCT-116, read-out: IC50 HCT-116.
A further assay relates to HepG-2. Description: In vitro antiproliferative MTT assay, HepG-2. The assay is classed as cell-based. Particulars: Homo sapiens, HepG2, read-out: IC50 HepG-2. For orientation: Tetrazolium dyes change colour on reduction, which living cells bring about.
The next assay concerns MCF-7. As to the kind of experiment: In vitro antiproliferative MTT assay, MCF-7. Particulars: Homo sapiens, MCF7, read-out: IC50 MCF-7. The assay is classed as cell-based.
The subject of assay [1] is HepG2 cells. Description: Cell cycle analysis, flow cytometry, HepG2. Particulars: treated at IC50 (3a 4.82, 6 3.33, 15 3.31 μM), 72 h, single measurement. The assay is classed as cell-based, human.
Assay [2] relates to HepG2 cells. Description: Apoptosis analysis, Annexin V/PI, HepG2. In kind it is cell-based, human. The note with it: at IC50, 72 h, single measurement.
In a further assay the test system is WI-38. Description: Cytotoxicity against normal WI-38 cells. In kind it is cell-based. Particulars: Homo sapiens, WI-38, read-out: IC50 WI-38.

In general, IC50 refers to the concentration needed to halve the response being measured. As for `CCN(CC)C(=S)N/N=C(\C)c1ccc(S(=O)(=O)N2CCC(C)CC2)cc1` [Compound 5, (E)-N,N-Diethyl-2-(1-(4-((4-methylpiperidin-1-yl)sulfonyl)phenyl)ethylidene)hydrazine-1-carbothioamide], the results for the half-inhibitory concentration (IC50) in the assay on HCT-116, in the assay with HepG-2 and in the assay with MCF-7 were 15.1 ± 0.75 µM, 10.7 ± 0.63 µM and 18.4 ± 0.85 µM, respectively.

Turning to `C/C(=N\N)c1ccc(S(=O)(=O)N2CCC(C)CC2)cc1` [Compound 12, (E)-1-((4-(1-hydrazineylideneethyl)phenyl)sulfonyl)-4-methylpiperidine], the results for the IC50 with HCT-116, in the assay on HepG-2 and in the assay with MCF-7 were 87.3 ± 6.2 µM, 59.6 ± 3.3 µM and 96.1 ± 5.23 µM, respectively.

For the molecule `COc1cccc2c1C(=O)c1c(O)c3c(c(O)c1C2=O)C[C@@](O)(C(=O)CO)C[C@@H]3O[C@H]1C[C@H](N)[C@H](O)[C@H](C)O1` [doxorubicin], the IC50 in the assay on HCT-116 is 6.74 ± 0.4 µM. Moreover, the IC50 with HepG-2 came to 7.52 ± 0.31 µM. The IC50 in the assay on MCF-7 was 8.19 ± 0.62 µM. Also, in the assay on HepG2 cells [1], the “%G0-G1” value turned out to be 48.26%, the “%G2/M” value worked out at 21.46%, the “%Pre-G1” value was determined as 31.28% and the “%S” value turned out to be 30.28%. In addition, in the assay on HepG2 cells [2], the apoptosis early came to 7.43%, the apoptosis late is on record as 21.13%, the apoptosis total stood at 31.28% and the necrosis is given as 2.72%.

Regarding `CNC(=O)c1cc(Oc2ccc(NC(=O)Nc3ccc(Cl)c(C(F)(F)F)c3)cc2)ccn1` [sorafenib], the IC50 worked out at 9.3 ± 0.2 µM in the assay on HCT-116, 7.4 ± 0.25 µM with HepG-2, 6.72 ± 0.16 µM in the assay on MCF-7 and 35.71 ± 0.013 µM with WI-38.

Consider `CC[C@]1(O)C[C@@H]2CN(CCc3c([nH]c4ccccc34)[C@@](C(=O)OC)(c3cc4c(cc3OC)N(C)[C@H]3[C@@](O)(C(=O)OC)[C@H](OC(C)=O)[C@]5(CC)C=CCN6CC[C@]43[C@@H]65)C2)C1` [vinblastine], for which the IC50 stood at 3.21 ± 0.21 µM in the assay on HCT-116, 7.35 ± 0.52 µM in the assay on HepG-2 and 5.83 ± 0.61 µM with MCF-7.
